From patent US8680282B2, “Cyclic inhibitors of carnitine palmitoyltransferase and treating cancer” (University Health Network, priority 2007, dated 2014)

Experiments:
COLO-205 = test: Cancer cell growth inhibition, SRB assay; assay type: cell-based, human; conditions: COLO-205; at 10 μM; SRB at Day 6; NE = no activity at 10 micromolar
SW480 = test: Cancer cell growth inhibition, SRB assay; assay type: cell-based, human; conditions: SW480; at 10 μM; SRB at Day 6; NE = no activity at 10 micromolar
SW620 = test: Cancer cell growth inhibition, SRB assay; assay type: cell-based, human; set-up: Percentage of Growth Inhibition: scale not given here; conditions: SW620; at 10 μM; SRB at Day 6; NE = no activity at 10 micromolar
HCT-15 = test: Cancer cell growth inhibition, SRB assay; assay type: cell-based, human; set-up: Percentage of Growth Inhibition: scale not given here; conditions: HCT-15; at 10 μM; SRB at Day 6; NE = no activity at 10 micromolar
A172 = test: Cancer cell growth inhibition, SRB assay; assay type: cell-based, human; conditions: A172; at 10 μM; SRB at Day 6; NE = no activity at 10 micromolar
Experimental: (§1) Human cancer cells (MCF-7, H358, H460, HCT116 p53^+/+, HCT116 p53^−/−, A172, PC-3, DU-145 and SW626) were maintained in DMEM medium containing 10% Fetal Bovine Serum (FBS) (Invitrogen, Burlington, ON, Canada) and normal cells HMEC, 184A1, NHBE and PrEC were cultured in MEGM, MEGM plus transferring and cholera toxin, BEGM and PrEGM supplemented with various growth factors (Cambrex, Charles city, Iowa, USA), respectively.
(§2) Compounds of Examples S1 to S30, and 4-(carboxymethyl)-4-(6-(3-hexyloxy)phenoxy)hexanoamido)-1,1-dimethylpiperidinium 2,2,2-trifluoroactate (“Compound A”) were tested in this example. Each of the tested compounds was dissolved in DMSO and further diluted in cell culture medium for the experiments performed. Cells were seeded into 96-well plates with 1,500-5,000 cells/well according to cell growth rate. After 24 h, DMEM medium containing 10% FBS were changed to DMEM containing 3% FBS for cancer cells. The compound was added into the cell culture at the indicated concentrations, and the final concentration of DMSO was adjusted to a final concentration of 0.1%. Cell viability was assessed by Sulforhodamine B (SRB) assay at Day 6.
(§3) Sulforhodamine B (SRB) (Sigma, Oakville, ON, Canada) is a water-soluble dye that binds to the basic amino acids of the cellular proteins. Thus, colorimetric measurement of the bound dye provides an estimate of the total protein mass that is related to the cell number. The cells were fixed in situ by gently aspirating off the culture media and adding 50 ul of cold 10% Tri-chloroacetic Acid (TCA) per well and incubated at 4° C. for 30-60 min. The plates were washed five times with water and allowed to air dry for 5 min. 50 ul of 0.4% (w/v) SRB dissolved in 1% (v/v) acetic acid were added into each well, plates were then incubated at RT for 30 min for staining, washed four times with 1% acetic acid to remove any unbound dye and then allowed to air dry for 5 min. Stain was solubilized with 100 ul of 10 mM Tris pH 10.5 per well. Absorbance was read at 570 nm on a spectrophotometer. GI50 (compound concentration required for 50% of growth inhibition) was calculated using GraphPad Prism 4.0 software (GraphPad Software, Inc., San Diego, Calif., USA). Growth inhibition (%) was determined as percentage of cells remaining compared to the DMSO-treated cells as control.

PC-3 = test: Cancer cell growth inhibition, SRB assay; assay type: cell-based, human; conditions: PC-3; at 10 μM; SRB at Day 6; NE = no activity at 10 micromolar
Experimental: as §1, §2, §3

H358 = test: Cancer cell growth inhibition, SRB assay; assay type: cell-based, human; set-up: Percentage of Growth Inhibition: unit not given here; conditions: H358; at 10 μM; SRB at Day 6; NE = no activity at 10 micromolar
Experimental: as §1, §2, §3

SW626 = test: Cancer cell growth inhibition, SRB assay; assay type: cell-based, human; set-up: Percentage of Growth Inhibition: scale not given here; conditions: SW626; at 10 μM; SRB at Day 6; NE = no activity at 10 micromolar
Experimental: as §1, §2, §3

MCF-7 = test: Cancer cell growth inhibition, SRB assay; assay type: cell-based, human; set-up: Percentage of Growth Inhibition: scale not given here; conditions: MCF-7; at 10 μM; SRB at Day 6; NE = no activity at 10 micromolar
Experimental: as §1, §2, §3

human CPT1A = biological target: T1, human CPT1A (Homo sapiens, UniProt P50416); test: Human CPT1A LC/MS assay; assay type: biochemical
T1 construct: made in house; host or cells: Saccharomyces cerevisiae (pESC-trp) or cultured mammalian cells (pCDNA3.1); mitochondrial extract
T1 sequence (P50416 1-773): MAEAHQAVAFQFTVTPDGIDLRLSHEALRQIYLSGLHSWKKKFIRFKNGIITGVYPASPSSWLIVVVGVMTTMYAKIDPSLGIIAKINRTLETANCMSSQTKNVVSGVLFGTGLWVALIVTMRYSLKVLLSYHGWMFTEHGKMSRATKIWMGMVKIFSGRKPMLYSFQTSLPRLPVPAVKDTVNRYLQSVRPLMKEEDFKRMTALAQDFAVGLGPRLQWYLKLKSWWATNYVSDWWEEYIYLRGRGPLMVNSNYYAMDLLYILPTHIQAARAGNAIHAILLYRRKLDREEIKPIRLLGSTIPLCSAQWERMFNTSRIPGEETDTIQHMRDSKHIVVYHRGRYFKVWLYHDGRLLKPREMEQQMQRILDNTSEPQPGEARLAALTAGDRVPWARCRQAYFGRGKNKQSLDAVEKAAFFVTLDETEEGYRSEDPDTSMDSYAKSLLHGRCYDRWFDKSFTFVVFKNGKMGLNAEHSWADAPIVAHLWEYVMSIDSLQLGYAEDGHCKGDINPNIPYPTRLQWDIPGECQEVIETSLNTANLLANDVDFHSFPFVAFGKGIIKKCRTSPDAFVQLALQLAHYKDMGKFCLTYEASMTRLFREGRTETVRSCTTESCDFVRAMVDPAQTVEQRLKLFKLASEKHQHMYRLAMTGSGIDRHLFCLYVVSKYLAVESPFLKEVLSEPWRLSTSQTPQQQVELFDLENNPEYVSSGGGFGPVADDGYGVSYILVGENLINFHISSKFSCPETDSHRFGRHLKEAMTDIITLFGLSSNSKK
Text: Nucleotide sequences encoding human CPT1 enzymes were individually cloned into the yeast expression vector pESC-trp at the Cla1 (5′ terminus) and Pac1 (3′ terminus) restriction sites by PCR amplification of the open reading frame using oligonucleotide primers designed to encode the wild-type CPT1 protein sequence. Standard molecular biology techniques were used to transform and express the CPT1 proteins in the yeast Saccharomyces cerevisiae. The yeast cells were lysed by enzymatic degradation of the cell wall by Zymolase, and the mitochondria were isolated by standard biochemical techniques. The integrity of the isolated mitochondria was monitored by determining the activity of succinate dehydrogenase in the mitochondrial preparations. The mitochondrial extracts were stored at −80° C. in buffer containing 10 mM HEPES pH 7.4 and 250 mM sucrose.
Human CPT1 (A, B, C) genes were additionally cloned into the pCDNA3.1 vector individually for expression in cultured mammalian cells. Cells expressing the exogenous CPT1A were identified and grown under standard conditions. Mammalian cells were harvested, and mitochondrial extracts prepared using standard biochemical methods. The mitochondrial extracts were stored at −80° C. in buffer containing 10 mM HEPES pH 7.4 and 250 mM sucrose.
Assays were performed in 96-well plate format. Each 100 μL reaction contained 40 mM KCl, 50 mM TrisHCl pH 7.5, and 250 mM mannitol (Assay Buffer), and 1.6 μg protein of an extract, 20 μM palmitoyl-CoA, 50 μM L-carnitine, and 10 ug/mL BSA. Reactions were incubated at room temperature and stopped after 10 minutes by extraction with 200 μL of water saturated n-butanol containing myristoyl carnitine (500 nM) as an internal standard. The samples were thoroughly mixed, and the phases separated by centrifugation. Samples were prepared for analysis with a 10 fold dilution of the n-butanol phase containing the reaction product palmitoyl carnitine into a 50:50 (acetonitrile:water) solvent for analysis. 5 μL of prepared sample was separated on a Phenomenex Jupiter 5μ C4 reverse-phase column using an Agilent 1100 HPLC with a gradient from 50% acetonitrile (0.5% acetic acid) to 100% acetonitrile and quantified by detection with a Bruker Esquire 3000plus mass spectrometer. The abundance of the palmitoyl carnitine product was determined relative to the internal standard and the actual quantity of palmitoyl carnitine can be determined from a standard curve prepared using the n-butanol solution containing the internal standard.
Compounds were evaluated in two formats, a screening format, and a dose response format. The screening format was performed by adding 25 μL compound in 20% DMSO and Assay Buffer to 25 μL of extract containing […] and Assay Buffer, followed by a 10 minute incubation at room temperature. 50 μL of 40 μM palmitoyl-CoA in Assay Buffer was added to the reaction mixture, mixed and incubated for 10 minutes at room temperature. A negative control for activity was also performed where the carnitine was omitted from the reaction. A positive control for activity was also performed by omitting compound from the solution containing 20% DMSO and Assay Buffer. The reaction mixture was extracted and analyzed as described above. The inhibition by compound was determined by comparing the control relative activity to the relative activity observed in wells containing the compound. Relative activity was determined by subtracting the relative intensity (area palmitoyl carnitine/area myristoyl carnitine) observed in the negative control from the relative intensity observed in the experimental well, and dividing by the relative activity observed in the positive control.
[formula] Compound characterization by dose response format was performed using the above described assay conditions and a 16 point compound titration in 2 fold compound dilution steps. The DMSO concentration was kept constant at 20% (v/v) for all compound concentrations.

HCT-8 = test: Cancer cell growth inhibition, SRB assay; assay type: cell-based, human; conditions: at 10 μM, SRB at Day 6
[1] = human CPT1A LC/MS assay, dose response format

| Structure (SMILES) | Percentage of Growth Inhibition (A172) | Percentage of Growth Inhibition (H358) | Percentage of Growth Inhibition (SW626) | Percentage of Growth Inhibition (MCF-7) | IC50 (human CPT1A; [1]) | further results |
| --- | --- | --- | --- | --- | --- | --- |
| CCCCCCCCc1ccc(NC(=O)NC2(CC(=O)O)CCN(C)CC2)cc1 [Example S1, 4-(carboxymethyl)-1-methyl-4-(3-(4-octylphenyl)ureido)piperidinium 2,2,2-trifluoroacetate] | 0.1571% | 0.4324 | 0.05142% | 0.1204% |  | Percentage of Growth Inhibition (COLO-205): 0.07287%; Percentage of Growth Inhibition (SW480): 0.08459%; Percentage of Growth Inhibition (SW620): 0.04345%; Percentage of Growth Inhibition (HCT-15): 0.05911%; Percentage of Growth Inhibition (PC-3): 0.1924% |
| CCCCCc1ccc(S(=O)(=O)NC2(CC(=O)O)CCC[N+](C)(C)C2)cc1 (centres unmarked) [Example S12, 3-(carboxymethyl)-1,1-dimethyl-3-(4-pentylphenylsulfonamido)-piperidinium 2,2,2-trifluoroacetate] | 0.07689% | 0.04495 | 0.00486% | 0.2351% | ≤ 1 µM | Percentage of Growth Inhibition (COLO-205): 0.1281% |
| CN1CCCC(CC(=O)O)(NC(=O)c2ccc(CCc3ccccc3)o2)C1 (centres unmarked) [Example S13, 3-(carboxymethyl)-1-methyl-3-(5-phenethylfuran-2-carboxamido)-piperidinium 2,2,2-trifluoroacetate] |  |  |  |  | 100 to 1000 µM |  |
| C[N+]1(C)CCCC(CC(=O)O)(NC(=O)c2ccc(CCc3ccccc3)o2)C1 (centres unmarked) [Example S14, 3-(carboxymethyl)-1,1-dimethyl-3-(5-phenethylfuran-2-carboxamido)piperidinium 2,2,2-trifluoroacetate] |  | 0.3919 |  |  | 10 to 100 µM | Percentage of Growth Inhibition (SW620): 0.04122% |
| CCCCCCCCc1ccc(NC(=O)NC2(CC(=O)O)CCN(C)C2)cc1 (centres unmarked) [Example S17, 3-(carboxymethyl)-1-methyl-3-(3-(4-octylphenyl)ureido)pyrrolidinium 2,2,2-trifluoroacetate] |  |  |  |  | 10 to 100 µM |  |
| CCCCCc1ccc(S(=O)(=O)NC2(CC(=O)O)CCN(C)C2)cc1 (centres unmarked) [Example S19, 3-(carboxymethyl)-1-methyl-3-(4-pentylphenylsulfonamido)-pyrrolidinium 2,2,2-trifluoroacetate] |  |  |  | 0.08166% | 100 to 1000 µM |  |
| CCCCCc1ccc(S(=O)(=O)NC2(CC(=O)O)CNC2)cc1 [Example S25, 3-(carboxymethyl)-3-(4-pentylphenylsulfonamido)azetidinium 2,2,2-trifluoroacetate] |  | 0.05754 | 0.07606% | 0.1452% | > 2500 µM | Percentage of Growth Inhibition (HCT-15): 0.00572% |
| CCCCCCCCc1ccc(NS(=O)(=O)NC2(CC(=O)O)CNC2)cc1.O=C(O)C(F)(F)F [Example S28, 3-(carboxymethyl)-3-(N-(4-octylphenyl)sulfamoylamino)azetidinium 2,2,2-trifluoroacetate] | 0.3077% | 0.06989 | 0.04727% | 0.04154% | > 2500 µM | Percentage of Growth Inhibition (HCT-8): 0.06675%; Percentage of Growth Inhibition (PC-3): 0.6043% |
| C[N+](C)(C)C[C@H](N)CC(=O)[O-] [L-aminocarnitine, reference compound] |  |  |  |  |  | IC50 (human CPT1A; dose response assay, n=17): 7 ± 2.5 µM |
